# Reference: publication PMC10257182, “Discovery of senolytics using machine learning” (Nature Communications, 2023)
# Values joined by “and” are separate entries in the source; they are usually repeats but may differ in a detail not shown here. Equal values may be shown once. Read-outs that look alike come from different tables or passages of the source.
# Key:
# Assay type in all cases: cell-based, human
# [1] = tested on: senescent IMR90 ER:RAS cells (4-OHT-induced); test: Nuclei count (Hoechst, high content imaging) senolytic assay, oncogene-induced senescence (OIS) model, senescent cells
# Description: To test for senolytic activity, we compared the effect of each compound on the total cell number (automated high content image-based analysis of total number of nuclei per well) in non-senescent and senescent IMR90 ER:RAS cultures treated with the top hits from the computational screen (Figs. 2e and 3a–d and Supplementary Fig. 4a–c). The drop in cell number compared to untreated controls is indicated by the nuclei count and reflects cell death[13],[15]. As positive control, we employed ouabain, a cardiac glycoside with well characterised senolytic activity.
# (§1) We performed experimental validation of the compounds with z-score > 8 (Fig. 2e). […] We employed two cellular models of senescence: one of OIS and a second one of TIS. For the OIS case, we utilised IMR90 ER:RAS cells with 4-OHT at 100 nM. […] For the TIS model, we used A549 cells with etoposide at 100 μM. The exposure of the cells to etoposide lasted 48 h, after which period the cells were cultivated for a further three days with normal media.
# (§2) IMR90 (CCL-186) human foetal lung fibroblasts and A549 (CCL-185) human lung adenocarcinoma cells were obtained from the American Type Culture Collection (ATCC, Manassas, VA). The cell lines were confirmed to be mycoplasma negative (Lonza MycoAlert, cat #LT07-118). IMR90 ER:RAS is a derivative of IMR90 cells expressing a switchable version of oncogenic H-Ras[84]. IMR90 ER:RAS and A549 cells were maintained in Dulbecco’s Modified Eagle Medium (DMEM, ThermoFisher) supplemented with foetal bovine serum (10%), L-glutamine (2 mM, ThermoFisher), and antibiotic-antimycotic solution (1%, ThermoFisher) and incubated under standard tissue culture conditions (37 °C and 5% CO2). For induction of the senescent phenotype, IMR90-ER:RAS cells were cultured in hydroxytamoxifen (4-OHT) (Sigma) added media at 100 nM final concentration. IMR90 were kept in culture for over 27 passages for replicative senescence. Cells were tested for mycoplasma on a regular basis.
# (§3) Cells were seeded (50 μL per well) into 384-well plates (IMR90 ER:RAS cells in Nunc Optical Bottom Polybase Microplates [#142761, Thermo Scientific, Rochester, NY] and A549 cells in CELLSTAR Cell Culture Microplates [#781091, Greiner Bio-One, Kremsmünster, Austria]). Cells were incubated under standard tissue culture conditions for 24 h before the addition of compounds. Passage 14 IMR90 ER:RAS cells were seeded at 1300 cells per well in the control condition, and at 1600 cells per well in the senescent case. Passage 34 A549 cells were seeded at 7000 cells per well in the control condition, and at 10,000 cells per well in the senescent case.
# (§4) Dose response plates were prepared with a DMSO control and a 10-point […] concentration range, and added to the compounds using a D300e digital dispenser (Tecan Trading AG, Switzerland) at a final concentration of between 10 μM and 10 nM. Every screened condition was carried out in triplicate. After 72 h of incubation with exposure to the compounds, cells were fixed by the addition of an equal volume of formaldehyde (8%, 50 μL; #BP531-500, Fisher Bioreagents, Fisher Scientific, Loughborough, Leicestershire) to the existing media, incubated at room temperature (30 min), and washed three times in phosphate-buffered saline (PBS). Cells were then permeabilised in Triton-X100 (0.1%, 50 μL) and incubated at room temperature (30 min) followed by three more washes with PBS.
# (§5) Cells were stained with Hoechst 33342 for nuclei count (excitation/emission wavelength at 387/447 […], DAPI channel, original concentration at 10 mg/ml, final concentration at 2 μg/ml; H1399, Molecular Probes, Eugene, OR). The staining solution was prepared in bovine serum albumin solution (10%). The staining solution was added to each well (30 μL) and incubated in the dark at room temperature (30 min), followed by three washes with PBS and no final aspiration. Plates were foil sealed.
# [2] = tested on: non-senescent control A549 cells; test: Nuclei count senolytic assay, TIS model, non-senescent control cells; conditions: Control cells, mean
# Experimental: (§6) We performed a second validation of the effectiveness of our machine learning models using a different stressor. We focused on therapy-induced senescence (TIS, Supplementary Fig. 6a), where human epithelial cancerous cells (A549) were induced to become senescent by addition of etoposide. Cells were treated with 100 μM etoposide for 48 h, followed by another three days of exposure to media in standard conditions.
# as §1, §2, §3, §4, §5
# (§7) Plates were imaged on an ImageXpress micro XLS (Molecular Devices, Eugene, OR) equipped with a robotic plate loader (Scara4, PAA, UK).
# [3] = tested on: senescent A549 cells (etoposide-induced); test: Nuclei count senolytic assay, therapy-induced senescence (TIS) model, senescent cells; conditions: Senescent cells, mean
# Experimental: as §6, §1, §2, §3, §4, §5, §7
smiles,measurement,setting,value
"Cc1c(NC(=O)OC[C@@H]2COCCN2)cn2ncnc(Nc3ccc4c(cnn4Cc4cccc(F)c4)c3)c12.Cl.Cl [BMS 599626 2HCL, BMS 599626 dihydrochloride]",% Cell Survival,"[1]; Senescent cells, log (dose) [M] -5, individual replicates, SUP FIG 4C",148.305% and 168.559% and 104.914%
same,% Cell Survival,"[1]; Senescent cells, log (dose) [M] -5.33, individual replicates, SUP FIG 4C",96.2712% and 179.476% and 125.714%
same,% Cell Survival,"[1]; Senescent cells, log (dose) [M] -5.66, individual replicates, SUP FIG 4C",153.051% and 117.467% and 95.5429%
same,% Cell Survival,"[1]; Senescent cells, log (dose) [M] -6, individual replicates, SUP FIG 4C",117.797% and 133.042% and 86.6286%
same,% Cell Survival,"[1]; Senescent cells, log (dose) [M] -6.33, individual replicates, SUP FIG 4C",137.458% and 98.5444% and 96.6857%
same,% Cell Survival,"[1]; Senescent cells, log (dose) [M] -6.66, individual replicates, SUP FIG 4C",136.441% and 92.5764% and 82.2857%
same,% Cell Survival,"[1]; Senescent cells, log (dose) [M] -7, individual replicates, SUP FIG 4C",136.102% and 95.3421% and 94.0571%
same,% Cell Survival,"[1]; Senescent cells, log (dose) [M] -7.33, individual replicates, SUP FIG 4C",122.034% and 101.601% and 79.4286%
same,% Cell Survival,"[1]; Senescent cells, log (dose) [M] -7.66, individual replicates, SUP FIG 4C",139.831% and 102.475% and 90.8571%
same,% Cell Survival,"[1]; Senescent cells, log (dose) [M] -8, individual replicates, SUP FIG 4C",151.017% and 98.69% and 92.6857%
same,Mean % Cell Survival,"[1]; Senescent, log (dose) [M] -5, 72 h, mean n=3 (Fig 3C)",140.593%
same,Mean % Cell Survival,"[1]; Senescent, log (dose) [M] -5.33, 72 h, mean n=3 (Fig 3C)",133.82%
same,Mean % Cell Survival,"[1]; Senescent, log (dose) [M] -5.66, 72 h, mean n=3 (Fig 3C)",122.02%
same,Mean % Cell Survival,"[1]; Senescent, log (dose) [M] -6, 72 h, mean n=3 (Fig 3C)",112.489%
same,Mean % Cell Survival,"[1]; Senescent, log (dose) [M] -6.33, 72 h, mean n=3 (Fig 3C)",110.896%
same,Mean % Cell Survival,"[1]; Senescent, log (dose) [M] -6.66, 72 h, mean n=3 (Fig 3C)",103.768%
same,Mean % Cell Survival,"[1]; Senescent, log (dose) [M] -7, 72 h, mean n=3 (Fig 3C)",108.5%
same,Mean % Cell Survival,"[1]; Senescent, log (dose) [M] -7.33, 72 h, mean n=3 (Fig 3C)",101.021%
same,Mean % Cell Survival,"[1]; Senescent, log (dose) [M] -7.66, 72 h, mean n=3 (Fig 3C)",111.054%
same,Mean % Cell Survival,"[1]; Senescent, log (dose) [M] -8, 72 h, mean n=3 (Fig 3C)",114.131%
same,% Cell Survival,"[1]; Senescent, log (dose) [M] -5",90.7857%
same,% Cell Survival,"[1]; Senescent, log (dose) [M] -5.33",83.9286%
same,% Cell Survival,"[1]; Senescent, log (dose) [M] -5.66",68.2857%
same,% Cell Survival,"[1]; Senescent, log (dose) [M] -6",92.9286%
same,% Cell Survival,"[1]; Senescent, log (dose) [M] -6.33",86.7857%
same,% Cell Survival,"[1]; Senescent, log (dose) [M] -6.66",103.929%
same,% Cell Survival,"[1]; Senescent, log (dose) [M] -7",113.571%
same,% Cell Survival,"[1]; Senescent, log (dose) [M] -7.33",119.214%
same,% Cell Survival,"[1]; Senescent, log (dose) [M] -7.66",109.286%
same,% Cell Survival,"[1]; Senescent, log (dose) [M] -8",117.714%
same,Mean % Cell Survival,[2]; log (dose) [M] -5,104.732%
same,Mean % Cell Survival,[2]; log (dose) [M] -5.33,111.851%
same,Mean % Cell Survival,[2]; log (dose) [M] -5.66,123.214%
same,Mean % Cell Survival,[2]; log (dose) [M] -6,110.134%
same,Mean % Cell Survival,[2]; log (dose) [M] -6.33,107.884%
same,Mean % Cell Survival,[2]; log (dose) [M] -6.66,104.478%
same,Mean % Cell Survival,[2]; log (dose) [M] -7,103.285%
same,Mean % Cell Survival,[2]; log (dose) [M] -7.33,102.917%
same,Mean % Cell Survival,[2]; log (dose) [M] -7.66,99.9891%
same,Mean % Cell Survival,[2]; log (dose) [M] -8,98.951%
same,Mean % Cell Survival,[3]; log (dose) [M] -5,90.7857%
same,Mean % Cell Survival,[3]; log (dose) [M] -5.33,83.9286%
same,Mean % Cell Survival,[3]; log (dose) [M] -5.66,68.2857%
same,Mean % Cell Survival,[3]; log (dose) [M] -6,92.9286%
same,Mean % Cell Survival,[3]; log (dose) [M] -6.33,86.7857%
same,Mean % Cell Survival,[3]; log (dose) [M] -6.66,103.929%
same,Mean % Cell Survival,[3]; log (dose) [M] -7,113.571%
same,Mean % Cell Survival,[3]; log (dose) [M] -7.33,119.214%
same,Mean % Cell Survival,[3]; log (dose) [M] -7.66,109.286%
same,Mean % Cell Survival,[3]; log (dose) [M] -8,117.714%
"C[C@@H]1O[C@@H](O[C@H]2C[C@@H](O)[C@]3(CO)[C@H]4[C@H](O)C[C@]5(C)[C@@H](C6=CC(=O)OC6)CC[C@]5(O)[C@@H]4CC[C@]3(O)C2)[C@H](O)[C@H](O)[C@H]1O [Ouabain, ouabain, reference compound]",viability at 10 µM,"[1]; Homo sapiens, IMR-90, 72 h, Senescent, log (dose) [M] -5, 72 h, mean n=3 (Fig 3C), read-out: Mean % Cell Survival",2.57%
same,viability at 4.677 µM,"[1]; Homo sapiens, IMR-90, 72 h, Senescent, log (dose) [M] -5.33, 72 h, mean n=3 (Fig 3C), read-out: Mean % Cell Survival",2.79%
same,viability at 2.188 µM,"[1]; Homo sapiens, IMR-90, 72 h, Senescent, log (dose) [M] -5.66, 72 h, mean n=3 (Fig 3C), read-out: Mean % Cell Survival",3.51%
same,viability at 1 µM,"[1]; Homo sapiens, IMR-90, 72 h, Senescent, log (dose) [M] -6, 72 h, mean n=3 (Fig 3C), read-out: Mean % Cell Survival",4.22%
same,viability at 0.4677 µM,"[1]; Homo sapiens, IMR-90, 72 h, Senescent, log (dose) [M] -6.33, 72 h, mean n=3 (Fig 3C), read-out: Mean % Cell Survival",4.07%
same,viability at 0.2188 µM,"[1]; Homo sapiens, IMR-90, 72 h, Senescent, log (dose) [M] -6.66, 72 h, mean n=3 (Fig 3C), read-out: Mean % Cell Survival",2.69%
same,viability at 0.1 µM,"[1]; Homo sapiens, IMR-90, 72 h, Senescent, log (dose) [M] -7, 72 h, mean n=3 (Fig 3C), read-out: Mean % Cell Survival",4.75%
same,viability at 0.04677 µM,"[1]; Homo sapiens, IMR-90, 72 h, Senescent, log (dose) [M] -7.33, 72 h, mean n=3 (Fig 3C), read-out: Mean % Cell Survival",11.8%
same,viability at 0.02188 µM,"[1]; Homo sapiens, IMR-90, 72 h, Senescent, log (dose) [M] -7.66, 72 h, mean n=3 (Fig 3C), read-out: Mean % Cell Survival",73%
same,viability at 0.01 µM,"[1]; Homo sapiens, IMR-90, 72 h, Senescent, log (dose) [M] -8, 72 h, mean n=3 (Fig 3C), read-out: Mean % Cell Survival",89.4%
same,viability at 10 µM,"[1]; Homo sapiens, IMR-90, senescence cells, log (dose) [M] -5, read-out: % Cell Survival",2.5%
same,viability at 4.677 µM,"[1]; Homo sapiens, IMR-90, senescence cells, log (dose) [M] -5.33, read-out: % Cell Survival",2.14%
same,viability at 2.188 µM,"[1]; Homo sapiens, IMR-90, senescence cells, log (dose) [M] -5.66, read-out: % Cell Survival",4.05%
same,viability at 1 µM,"[1]; Homo sapiens, IMR-90, senescence cells, log (dose) [M] -6, read-out: % Cell Survival",4.29%
same,viability at 0.4677 µM,"[1]; Homo sapiens, IMR-90, senescence cells, log (dose) [M] -6.33, read-out: % Cell Survival",5.48%
same,viability at 0.2188 µM,"[1]; Homo sapiens, IMR-90, senescence cells, log (dose) [M] -6.66, read-out: % Cell Survival",3.1%
same,viability at 0.1 µM,"[1]; Homo sapiens, IMR-90, senescence cells, log (dose) [M] -7, read-out: % Cell Survival",4.88%
same,viability at 0.04677 µM,"[1]; Homo sapiens, IMR-90, senescence cells, log (dose) [M] -7.33, read-out: % Cell Survival",11.2%
same,viability at 0.02188 µM,"[1]; Homo sapiens, IMR-90, senescence cells, log (dose) [M] -7.66, read-out: % Cell Survival",70.8%
same,viability at 0.01 µM,"[1]; Homo sapiens, IMR-90, senescence cells, log (dose) [M] -8, read-out: % Cell Survival",86.1%
same,IC50,"[1]; Homo sapiens, IMR-90, OIS model, 4-OHT-induced IMR90 ER:RAS, nuclei count, 72 h",28 nM
same,dose showing the clearest / optimal senolytic effect,"[1]; OIS IMR90 ER:RAS, Hoechst nuclei count, marginal effect on normal cells",46.4 nM
